Literature values, collected in patent US20260327216A1, “SUBSTITUTED OXAZOLONE COMPOUND FOR DECREASING LEVELS OF IKZF I-4 PROTEINS” (BRISTOL-MYERS SQUIBB COMPANY, priority 2023, published 2026).

Assays:
[1] = test system: solid tumors; details: patients with solid tumors / advanced malignancies; cited from earlier work
[2] = test system: highly immunogenic syngeneic tumors; details: engineered mouse models; Geng et al., 2022; cited from earlier work
[3] = test system: T and NK cell functions; details: preclinical and clinical studies; cited from earlier work

Structure (SMILES)	clinical response in patients with solid tumors [1]	antitumor immune responses against highly immunogenic syngeneic tumors [2]	effect on T and NK cell functions [3]
Cc1nc2cccc(N)c2c(=O)n1C1CCC(=O)NC1=O (centres unmarked) [avadomide]	modest responses of stable disease		
Nc1cccc2c1C(=O)N(C1CCC(=O)NC1=O)C2=O (centres unmarked) [pomalidomide]	modest responses of stable disease		
Nc1cccc2c1CN(C1CCC(=O)NC1=O)C2=O (centres unmarked) [lenalidomide]	modest responses of stable disease	modestly increase antitumor immune responses	augment T and NK cell functions
